In patent EP1000059B1, “TRICYCLIC VASOPRESSIN AGONISTS” (Wyeth, priority 1997, dated 1999):
Where a name gives a salt, the structure may show the parent alone.

How the values were obtained:
Vasopressin V2 [1] = assay: Vasopressin V2 agonist effects of test compounds in normal conscious water-loaded rats; format: in vivo; conditions: oral dose of 10 mg/kg, urine collected for four hours, Sprague-Dawley (CD) rats; for Changes in Urinary Osmolality: osmolality changes expressed as percent of control; for Urine Volume (% decrease): percent decrease in urine volume vs. control, vehicle 20% DMSO in 2.5% preboiled corn starch
Source text: Vasopressin V2 Agonist Effects of Test Compounds in Normal Conscious Water-Loaded Rats:
Male or female normotensive Sprague-Dawley rats (Charles River Laboratories, Inc., Kingston, NY) of 350-500 g body weight were supplied with standard rodent diet (Purina Rodent Lab. Chow 5001) and water ad libitum. On the day of test, rats were placed individually into metabolic cages equipped with devices to separate the feces from the urine and containers for collection of urine. A test compound or a reference agent was given at an oral dose of 10 mg/kg in a volume of 10 ml/kg. The vehicle used was 20% dimethylsulfoxide (DMSO) in 2.5% preboiled corn starch. Thirty minutes after dosing the test compound, rats were gavaged with water at 30 ml/kg into the stomach using a feeding needle. During the test, rats were not provided with water or food. Urine was collected for four hours after dosing of the test compound. At the end of four hours, urine volume was measured. Urinary osmolality was determined using a Fiske One-Ten Osmometer (Fiske Associates, Norwood, MA, 02062) or an Advanced CRYOMATIC Osmometer, Model 3C2 (Advanced Instruments, Norwood, MA). Determinations of Na^+, K^+ and Cl^- ion were carried out using ion specific electrodes in a Beckman SYNCHRON EL-ISE Electrolyte System analyzer. The urinary osmolality should increase proportionally. In the screening test, two rats were used for each compound. If the difference in the urine volume of the two rats was greater than 50%, a third rat was used.

Vasopressin V2 [2] = assay: as above; format: in vivo; conditions: Sprague-Dawley (CD) rats; for Urine Volume (% decrease): percent decrease in urine volume vs. control, dose 1 mg/kg; for Changes in Urinary Osmolality: percent of control

SMILES | Changes in Urinary Osmolality (Vasopressin V2 [1]) | Urine Volume (% decrease) (Vasopressin V2 [1]) | other results
CN1c2ccccc2N(C(=O)c2ccc(-c3ccn(C)n3)cc2Cl)Cc2cccnc21 [Example 20, [2-Chloro-4-(1-methyl-1H-pyrazol-3-yl)-phenyl]-(5-methyl-5,11-dihydro-pyrido[2,3-b][1,5]benzodiazepin-10-yl)-methanone] | 89% of control | 10 | –
Cc1ccn(-c2ccc(C(=O)N3Cc4cccnc4Nc4ccccc43)c(Cl)c2)n1 [Example 1, [2-Chloro-4-(3-methyl-pyrazol-1-yl)-phenyl]-(5,11-dihydro-pyrido [2,3-b] [1,5]benzodiazepin-6-yl)-methanone] | 272% of control | 80 | –
Cc1ccn(-c2ccc(C(=O)N3Cc4cccnc4N(C)c4ccccc43)c(Cl)c2)n1 [Example 11, [2-Chloro-4-(3-methyl-pyrazol-1-yl)-phenyl]-(5-methyl-5,11-dihydro-pyrido[2,3-b][1,5]benzodiazepin-10-yl)-methanone] | 375% of control | 71 | –
Cc1ccn(-c2ccc(C(=O)N3Cc4cccnc4Oc4ccccc43)c(Cl)c2)n1 [Example 16, [2-Chloro-4-(3-methyl-pyrazol-1-yl)-phenyl]-(11H-5-oxa-4,10-diazadibenzo[a,d]cyclohepten-10-yl)-methanone] | 142% of control | 41 | –
Cc1ccnn1-c1ccc(C(=O)N2Cc3cccnc3Nc3ccccc32)c(Cl)c1 [Example 2, [2-Chloro-4-(5-methyl-pyrazol-1-yl)-phenyl] (5,11-dihydro-pyrido[2,3-b] [1,5]benzodiazepin-6-yl)-methanone] | 288% of control | 61 | –
Cn1ccc(-c2ccc(C(=O)N3Cc4cccnc4Nc4ccccc43)c(Cl)c2)n1 [Example 18, [2-Chloro-4-(1-methyl-1-H-pyrazol-3-yl)-phenyl]-(5,11-dihydro-pyrido[2,3-b][1,5]benzodiazepin-10-yl)-methanone] | 234% of control | 76 | –
Cc1nc(-c2ccc(C(=O)N3Cc4cccnc4Nc4ccccc43)c(Cl)c2)n[nH]1 [Example 24, [2-Chloro-4-(5-methyl-1H-[1,2,4]triazol-3-yl)-phenyl]-(5,11-dihydro-pyrido[2,3-b][1,5]benzodiazepin-6-yl)-methanone] | 615% of control | 86 | –
O=C(c1ccc(-n2ccc(C(F)(F)F)n2)cc1Cl)N1Cc2cccnc2Nc2ccccc21 [Example 17, [2-Chloro-4-(3-trifluoromethyl-pyrazol-1-yl)-phenyl]-(5,11-dihydro-pyrido[2,3-b][1,5]benzodiazepin-6-yl)-methanone] | 262% of control | 72 | –
Cc1ccn(-c2cc(F)ccc2C(=O)N2Cc3cccnc3Nc3ccccc32)n1 [Example 10, (5,11-Dihydro-pyrido[2,3-b][1,5]benzodiazepin-10-yl)-[4-fluoro-2-(3-methyl-pyrazol-1-yl)-phenyl]-methanone solvate with 0.20 ethanol] | 276% of control | 63 | –
Cc1ccn(-c2ccc(C(=O)N3Cc4cccnc4Nc4ccccc43)c(Br)c2)n1 [Example 3, [2-Bromo-4-(3-methyl-pyrazol-1-yl)-phenyl]-(5,11-dihydro-pyrido[2,3-b] [1,5]benzodiazepin-6-yl)-methanone] | 346% of control | 85 | –
Cc1ccn(-c2ccc(C(=O)N3Cc4cccnc4Nc4ccccc43)c(F)c2)n1 [Example 9, (5,11-Dihydro-pyrido[2,3-b][1,5]benzodiazepin-10-yl)-[2-fluoro-4-(3-methyl-pyrazol-1-yl)-phenyl]-methanone 0.19 hydrate] | 372% of control | 59 | –
Cc1ccn(-c2ccc(C(=O)N3Cc4cccnc4Nc4ccccc43)c(C(F)(F)F)c2)n1 [Example 4, (5,11-Dihydro-pyrido[2,3-b][1,5]benzodiazepin-6-yl)-[4-(3-methyl-pyrazol-1-yl)-2-trifluoromethyl-phenyl]-methanone] | 339% of control | 87 | –
O=C(c1ccc(-n2ccc(C(F)(F)F)n2)cc1C(F)(F)F)N1Cc2cccnc2Nc2ccccc21 [Example 7, (5,11-Dihydro-pyrido[2,3-b][1,5]benzodiazepin-6-yl)-[2-trifluoromethyl-4-(3-trifluoromethyl-pyrazol-1-yl)-phenyl]-methanone] | 283% of control | 69 | –
Cc1ccn(-c2ccc(C(=O)N3Cc4cccnc4Nc4ccccc43)c(C(F)(F)F)c2)n1 [Example 14, (5,11-Dihydro-pyrido[2,3-b][1,5]benzodiazepin-6-yl)-[4-(3-methyl-pyrazol-1-yl)-2-trifluoromethyl-phenyl]-methanone 1:1 salt with methanesulfonic acid solvate with 0.15 hexane] | – | – | Urine Volume (% decrease) (Vasopressin V2 [2]): 83 (1 mg/kg) % decrease; Changes in Urinary Osmolality (Vasopressin V2 [2]; same row's urine volume cell prints 1 mg/kg (footnote says 10 mg/kg)): 321% of control
Cc1ccn(-c2ccc(C(=O)N3Cc4cccnc4Nc4ccccc43)c(C(F)(F)F)c2)n1 [Example 15, (5,11-Dihydro-pyrido[2,3-b][1,5]benzodiazepin-6-yl)-[4-(3-methyl-pyrazol-1-yl)-2-trifluoromethyl-phenyl]-methanone 1:1 salt with hydrochloric acid 0.10 dichloromethane solvate] | – | – | Urine Volume (% decrease) (Vasopressin V2 [2]; starch only): 98 (1 mg/kg) starch only % decrease; Changes in Urinary Osmolality (Vasopressin V2 [2]): 1363% of control
Cc1ccn(-c2ccc(C(=O)N3Cc4cccnc4N(C)c4ccccc43)c(C(F)(F)F)c2)n1 [Example 8, (5-Methyl-5,11-dihydro-pyrido[2,3-b][1,5]benzodiazepin-10-yl)-[4-(3-methyl-pyrazol-1-yl)-2-trifluoromethyl-phenyl]methanone] | 298% of control | 72 | –
CC(C)(C)c1ccn(-c2ccc(C(=O)N3Cc4cccnc4Nc4ccccc43)c(C(F)(F)F)c2)n1 [Example 13, [4-(3-tert-Butyl-pyrazol-1-yl)-2-trifluoromethyl-phenyl]-(5,11-dihydro-pyrido[2,3-b][1,5]benzodiazepin-10-yl)-methanone] | 106% of control | 6 | –
Cc1ccn(-c2ccc(C)c(C(=O)N3Cc4cccnc4Nc4ccccc43)c2)n1 [Example 12, (5,11-Dihydro-pyrido[2,3-b][1,5]benzodiazepin-10-yl)-[2-methyl-5-(3-methyl-pyrazol-1-yl)-phenyl]-methanone] | 101% of control | -2 | –
Cc1ccnn1-c1ccc(C(=O)N2Cc3cccnc3Nc3ccccc32)c(C(F)(F)F)c1 [Example 6, (5,11-Dihydro-pyrido[2,3-b][1,5]benzodiazepin-10-yl)-[4-(5-methyl-pyrazol-1-yl)-2-trifluoromethyl-phenyl]-methanone solvate with 0.09 dichloromethane and 0.13 ethyl acetate] | 103% of control | 25 | –
